The test system of assay [1] is MRSA (SA 180-F strain). Kind of assay: Antibacterial activity in liquid medium (optical density). The format is cell-based, methicillin-resistant Staphylococcus aureus. Also noted: key to change of optical density vs negative control: ↓: Decrease in the parameter (optical density) compared to the negative control; −: No decrease in the parameter; ↑: Reverse effect (increase in the optical density compared to the control). As to conditions: 24 h, 37 °C. Here is the method: To evaluate the antibacterial activity of peptides in liquid culture, a stationary-phase culture of the tested bacterial strain was diluted 100-fold in fresh medium containing peptides or gentamicin (positive control) at the specified concentrations. A total volume of 200 µL was added to each well of a 96-well round-bottom microtiter plate. After 24 h of incubation at 37 °C, the samples were transferred to a flat-bottom 96-well microtiter plate, and the optical density was measured at 595 nm. Separately, the optical density of medium containing peptides but no bacteria was measured. These values were used as baseline (zero) readings for subsequent data analysis.

Assay [2] deals with E. coli (MG1655 strain). Kind of assay: Antibacterial activity on 0.7% agar (inhibition zone). It counts as cell-based, Escherichia coli. The conditions noted are these: drop on 0.7% agar, 24 h. The arrangement: key: +: The presence of a bacterial growth inhibition zone; −: The absence of a bacterial growth inhibition zone. As to the method:
Drops of the samples were applied to the surface of solidified 0.7% agar at the concentrations indicated in Table 2 and Supplementary S2 (Figures S1–S4). After 24 h of incubation, the results were evaluated based on the presence or absence (+/−) of inhibition zones.
Once the agar solidified, drops of peptide samples at the concentrations 1, 0.1, 0.01, and 0.001 mg/mL were applied to the agar surface.

Assay [3] deals with MRSA (SA 180-F strain). Kind of assay: Early biofilm formation, crystal violet staining. The format is cell-based, methicillin-resistant Staphylococcus aureus. The conditions noted are these: for concentration given with ↓ (crystal violet): 24 h. As to the method:
(§1) After 24 h of incubation, the medium was removed. To assess the total biofilm biomass, the wells were rinsed with sterile PBS solution and stained with 0.1% crystal violet. The dye bound to the surface was then removed using 95% ethanol. To assess the presence of metabolically active cells, 0.3% MTT (PanEco Ltd., Moscow, Russia) solution was added to each well, and the plates were incubated at 37 °C for 2 h. After incubation, the MTT solution was removed, 150 µL of DMSO (Chimmed, Moscow, Russia) and 25 µL of glycine buffer were added to each well, and the plates were left at room temperature for 15 min. The resulting solutions were transferred to a flat-bottom 96-well plate, and optical density was measured at 595 nm.

Assay [4] concerns MRSA (SA 180-F strain). The assay can be described thus: Early biofilm formation, MTT assay. The conditions noted are these: 24 h, 0.3% MTT 2 h 37 °C, OD 595 nm. Also noted: key: ↓: Decrease in the parameter (optical density) compared to the negative control; −: No decrease in the parameter; ↑: Reverse effect (increase in the optical density compared to the control). It counts as cell-based, methicillin-resistant Staphylococcus aureus. Here is the method: as §1

Assay [5] deals with P. aeruginosa (2943 strain). The assay can be described thus: Early biofilm formation, MTT assay. It counts as cell-based, Pseudomonas aeruginosa. Here is the method: as §1
On the technique in general: Tetrazolium assays rely on reduction of a dye to a coloured formazan, in cell work by metabolically active cells.

Assay [6] relates to E. coli (MG1655 strain). The assay can be described thus: Mature biofilms, MTT assay. It counts as cell-based, Escherichia coli. The conditions noted are these: mature biofilm. As to the method: as §1
(§2) A stationary-phase culture of the tested strain was diluted 100-fold in fresh medium (200 µL per well) and added to the wells of a 96-well round-bottom plate. […] After another 24 h, the medium was removed and the wells were rinsed with sterile PBS to eliminate planktonic cells. The procedures for assessing total biofilm biomass and cell metabolic activity using crystal violet and MTT assays were performed in the same manner as described above for early-stage biofilm experiments.

The subject of assay [7] is MRSA (SA 180-F strain). Kind of assay: Early biofilm formation, crystal violet staining. It counts as cell-based, methicillin-resistant Staphylococcus aureus. Also noted: key: ↓: Decrease in the parameter (optical density) compared to the negative control; −: No decrease in the parameter; ↑: Reverse effect (increase in the optical density compared to the control). The conditions noted are these: peptide present from inoculation, 24 h, OD 595 nm. Here is the method: as §1

The subject of assay [8] is E. coli (MG1655 strain). Kind of assay: Early biofilm formation, MTT assay. The arrangement: key: ↓: Decrease in the parameter (optical density) compared to the negative control; −: No decrease in the parameter; ↑: Reverse effect (increase in the optical density compared to the control). It counts as cell-based, Escherichia coli. The conditions noted are these: 24 h, 0.3% MTT 2 h 37 °C, OD 595 nm, listed as R44K^P. As to the method: as §1

For the next assay, the system named is S. aureus (129B strain). Kind of assay: Mature biofilms, crystal violet staining. The format is cell-based, Staphylococcus aureus. The arrangement: key: ↓: Decrease in the parameter (optical density) compared to the negative control; −: No decrease in the parameter; ↑: Reverse effect (increase in the optical density compared to the control). As to conditions: mature biofilm: peptide added after 24 h, further 24 h; 0.01-10 mg/mL. As to the method:
as §1, §2

Assay [9] concerns E. coli (MG1655 strain). Kind of assay: Early biofilm formation, MTT assay. Also noted: key: ↓: Decrease in the parameter (optical density) compared to the negative control; −: No decrease in the optical density; ↑: Reverse effect (increase in the optical density compared to the control). The format is cell-based, Escherichia coli. As to conditions: 24 h, 0.3% MTT 2 h 37 °C, OD 595 nm. As to the method: as §1

The test system of assay [10] is E. coli (MG1655 strain). Kind of assay: Mature biofilms, crystal violet staining. The arrangement: key: ↓: Decrease in the parameter (optical density) compared to the negative control; −: No decrease in the optical density; ↑: Reverse effect (increase in the optical density compared to the control). The conditions noted are these: mature biofilm: peptide added after 24 h, further 24 h; 0.01-10 mg/mL; listed as R44K^P. It counts as cell-based, Escherichia coli. As to the method: as §1, §2

As to “RKKRRQRRRGGGGVVVHINGGKFGGGGSRQIKIWFQNRRMKWKK [R44K^S]”, in the assay with MRSA (SA 180-F strain) [1], the “concentration given with ↓ (decrease in optical density)” value was determined as 0.1 mg/mL. The “change of optical density vs negative control” value with MRSA (SA 180-F strain) [1] (OD 595 nm) is “↓ (0.1 mg/mL)”. In addition, the “bacterial growth inhibition zone” value in the assay on E. coli (MG1655 strain) [2] (0.001 mg/mL), in the assay on E. coli (MG1655 strain) [2] (0.01 mg/mL), in the assay with E. coli (MG1655 strain) [2] (0.1 mg/mL) and in the assay on E. coli (MG1655 strain) [2] (1 mg/mL) was “−” each time. Besides, in the assay with MRSA (SA 180-F strain) [3] (1 and 10 mg/mL, Figure 1, two independent replicates), the “effect on MRSA biofilm formation (crystal violet staining intensity)” value is recorded as “inhibitory effect”. The figures for the “concentration given with ↓ (crystal violet)” value in the assay on MRSA (SA 180-F strain) [3] and in the assay on MRSA (SA 180-F strain) [3] (listed as R44K^P) were 1 mg/mL and 10 mg/mL, respectively. Further, the “biofilm biomass following treatment (crystal violet)” value with MRSA (SA 180-F strain) [3] (Table 3) is “marked reduction in biofilm biomass”. Moreover, the “effectiveness compared to meropenem” value in the assay on MRSA (SA 180-F strain) [3] (tested concentrations 0.01, 0.1, 1, 10 mg/mL, crystal violet, Figure 1) is reported as “less effective compared to meropenem”. Also, the “change of optical density after MTT assay vs negative control” value in the assay with MRSA (SA 180-F strain) [4] was “↑”; in the assay with E. coli (MG1655 strain) [8], “↑”; in the assay on E. coli (MG1655 strain) [9], “−”. The “bacterial metabolic activity (MTT)” value in assay [5] (10 mg/mL) is “reduced bacterial metabolic activity”. In addition, the “concentration given with ↓ (MTT)” value in [5] (24 h) is on record as 10 mg/mL. Also, the “residual viability of cells (MTT)” value in the assay on E. coli (MG1655 strain) [6] is “did not inhibit”. Also, the “change of optical density after crystal violet staining vs negative control” value in the assay with MRSA (SA 180-F strain) [7] is on record as “↓ (1 mg/mL)”; with MRSA (SA 180-F strain) [7] (listed as R44K^P), “↓ (10 mg/mL)”; with S. aureus (129B strain) it was “↑”; in the assay with E. coli (MG1655 strain) [10], “−”.
